The structures appear in SMILES notation.

For the assay, the target named is T1, NIK (Homo sapiens, UniProt Q99558).
T1 construct: Both assays utilize a truncated form of NIK containing only the catalytic domain; made in house; host or cells: baculovirus expression system (insect cells implied)
T1 sequence (Q99558 400-655 limits assumed): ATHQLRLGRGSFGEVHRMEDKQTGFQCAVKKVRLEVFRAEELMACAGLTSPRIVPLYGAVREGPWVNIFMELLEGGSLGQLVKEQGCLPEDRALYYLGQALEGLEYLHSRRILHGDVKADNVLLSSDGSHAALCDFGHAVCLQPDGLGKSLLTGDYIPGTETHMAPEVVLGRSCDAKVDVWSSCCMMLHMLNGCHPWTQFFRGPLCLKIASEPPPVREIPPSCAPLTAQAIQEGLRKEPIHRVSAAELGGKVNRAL
Put plainly: homogenous time resolved fluorescence (HTRF) assay for NIK Ki measurement. The class given is biochemical. Conditions: truncated NIK (catalytic domain only), autophosphorylation; 10 nM enzyme; 20, 100, 200 or 500 μM ATP; room temperature, 2 hours; read-out: Ki activity in the homogenous time resolved fluorescence (HTRF) assay for NIK. As for the experimental part:
Two formats of biochemical assays are implemented: (1) chemiluminescent (CL) assay for NIK IC50 determination; (2) homogenous time resolved fluorescence (HTRF) assay for NIK Ki measurement. […] The NIK proteins are purified with baculovirus expression system and further biotinylated with N-hydroxysuccinamide biotin ester (Sigma). […] The reaction mixtures are then immobilized on a Streptavidin-coated plate (Pierce). […] For the HTRF assay, 10 nM of enzyme are incubated with compounds in the presence of 20, 100, 200, or 500 μM of ATP in a buffer with 20 mM of Hepes pH7.5, 20 mM of MgCl2, 0.2% of Tween 20 and 1 mM of DTT at room temperature for 2 hours.
In general terms: TR-FRET usually uses a lanthanide donor and a delayed reading to cut background.
For the compound `OC1(C#Cc2ccc3[nH]nc(-c4ccns4)c3c2)CCCC1` [Example 97, 1-(2-(3-(isothiazol-5-yl)-1H-indazol-5-yl)ethynyl)cyclopentanol], the Ki – broadly, a dissociation constant, usually derived from enzyme kinetics or from competition with a known ligand – is below 1 µM.
Take `CC(O)(C#Cc1ccc2c(c1)N(c1ccnc(N)n1)CC2)c1ncco1` (stereo not drawn) [Example 291, 4-(1-(2-amino-4-pyrimidinyl)-2,3-dihydro-1H-indol-6-yl)-2-(1,3-oxazol-2-yl)-3-butyn-2-ol]: the inhibition constant Ki was below 1 µM.
Take `CC(O)(C#Cc1ccc2c(c1)N(c1nc(N)ncc1Cl)CC2(C)CO)c1nccs1` (single isomer, unassigned) [Example 53, 4-((3 S*)-1-(2-amino-5-chloro-4-pyrimidinyl)-3-(hydroxymethyl)-3-methyl-2,3-dihydro-1H-indol-6-yl)-2-(1,3-thiazol-2-yl)-3-butyn-2-ol]: the inhibition constant Ki is below 1 µM.
To `CC1(CCCO)CN(c2nc(N)ncc2Cl)c2cc(C#CC3(O)CCCC3)ccc21` (stereo not drawn) [Example 63, 1-((1-(2-amino-5-chloro-4-pyrimidinyl)-3-(3-hydroxypropyl)-3-methyl-2,3-dihydro-1H-indol-6-yl)ethynyl)cyclopentanol] belongs below 1 µM; to `Nc1ncc(Cl)c(-c2c[nH]c3ccc(C#CC4(O)CCCC4)cc23)n1` [Example 107, 1-(2-(3-(2-amino-5-chloropyrimidin-4-yl)-1H-indol-5-yl)ethynyl)cyclopentanol], below 1 µM.
With `CN1CCC2(C1)CN(c1nc(N)ncc1Cl)c1cc(C#C[C@](C)(O)c3nccs3)ccc12` (single isomer, unassigned) [Example 194, (2S)-4-((3R*)-1-(2-Amino-5-chloro-4-pyrimidinyl)-1′-methyl-1,2-dihydrospiro[indole-3,3′-pyrrolidin]-6-yl)-2-(1,3-thiazol-2-yl)-3-butyn-2-ol], the Ki lay in the range of 1 to 30 µM.
To `CC1(C)CN(c2nc(N)ncc2F)c2cc(C#CC3(O)CCCC3)ccc21` [Example 65, 1-((1-(2-amino-5-fluoro-4-pyrimidinyl)-3,3-dimethyl-2,3-dihydro-1H-indol-6-yl)ethynyl)cyclopentanol] belongs below 1 µM.
To `CN1CC2(C1)CN(c1nc(N)ncc1Cl)c1cc(C#C[C@@](C)(O)c3nccs3)ccc12` (single isomer, unassigned) [Example 182b, (2R*)-4-(1′-(2-Amino-5-chloro-4-pyrimidinyl)-1-methyl-1′,2′-dihydrospiro[azetidine-3,3′-indol]-6′-yl)-2-(1,3-thiazol-2-yl)-3-butyn-2-ol] belongs below 1 µM; to `CN1CCC2(C1)CN(c1nc(N)ncc1F)c1cc(C#CC3(O)CCCC3)ccc12` (racemic) [Example 190, (rac)-1-((1-(2-Amino-5-fluoro-4-pyrimidinyl)-1′-methyl-1,2-dihydrospiro[indole-3,3′-pyrrolidin]-6-yl)ethynyl)cyclopentanol], below 1 µM.
Regarding `COc1ccc(Nc2cc(-n3ccc4ccc(C#CC5(O)CCCC5)cc43)ncn2)cc1` [Example 260, 1-((1-(6-((4-(methyloxy)phenyl)amino)-4-pyrimidinyl)-1H-indol-6-yl)-ethynyl)-cyclopentanol], the Ki was 1 to 30 µM.
The same measure for `Cc1cnc(C(C)(O)C#Cc2ccc3c(c2)N(c2ccnc(N)n2)CC3)s1` (stereo not drawn) [Example 289, 4-(1-(2-Amino-4-pyrimidinyl)-2,3-dihydro-1H-indol-6-yl)-2-(5-methyl-1,3-thiazol-2-yl)-3-Butyn-2-ol]: below 1 µM; for `CC1(CO)CN(c2nc(N)ncc2Cl)c2cc(C#CC3(O)CCCC3)ccc21` (stereo not drawn) [Example 54, 1-((1-(2-amino-5-chloro-4-pyrimidinyl)-3-(hydroxymethyl)-3-methyl-2,3-dihydro-1H-indol-6-yl)ethynyl)cyclopentanol]: below 1 µM; for `COCCN(C)c1ccc(C#C[C@](C)(O)c2nccs2)cc1Nc1nc(N)ncc1Cl` [Example 153, (S)-4-(3-(2-Amino-5-chloropyrimidin-4-ylamino)-4-((2-methoxyethyl)(methyl)-amino)phenyl)-2-(thiazol-2-yl)but-3-yn-2-ol]: 1 to 30 µM.
With `COCCOc1cnc(N)nc1-c1cn(CCOC)c2ccc(C#CC3(O)CCCC3)cc12` [Example 234, 1-((3-(2-Amino-5-(2-methoxyethoxy)-4-pyrimidinyl)-1-(2-methoxyethyl)-1H-indol-5-yl)ethynyl)cyclopentanol], the Ki is below 1 µM.
`OC1(C#Cc2ccc3ccn(-c4ccnc(Nc5ccccc5)n4)c3c2)CCCC1` [Example 256, 1-((1-(2-(Phenylamino)-4-pyrimidinyl)-1H-indol-6-yl)ethynyl)cyclopentanol]: the Ki was below 1 µM.
To `COCCOc1cnc(N)nc1-c1cn(C)c2ccc(C#CC3(O)CCCC3)cc12` [Example 233, 1-((3-(2-Amino-5-(2-methoxyethoxy)-4-pyrimidinyl)-1-methyl-1H-indol-5-yl)ethynyl)cyclopentanol] belongs below 1 µM; to `CC1(C)CN(c2nc(N)ncc2Cl)c2cc(C#C[C@](C)(O)c3nccs3)ccc21` (single isomer, unassigned) [Example 41], 1 to 30 µM; to `Cc1cnc(C(C)(O)C#Cc2ccc3ncc(-c4nc(N)ncc4Cl)n3c2)s1` (stereo not drawn) [Example 300, 4-(3-(2-Amino-5-chloro-4-pyrimidinyl)imidazo[1,2-a]pyridin-6-yl)-2-(5-methyl-1,3-thiazol-2-yl)-3-butyn-2-ol], below 1 µM.
`Nc1ncc(Cl)c(C2=CC3(CCOCC3)c3ccc(C#CC4(O)CCCC4)cc32)n1` [Example 219, 1-((3-(2-Amino-5-chloro-4-pyrimidinyl)-2′,3′,5′,6′-tetrahydrospiro[indene-1,4′-pyran]-5-yl)ethynyl)cyclopentanol]: the Ki is below 1 µM.
Consider `CCC(C)(O)C#Cc1ccc2c(c1)N(c1ccnc(N)n1)CC2` (stereo not drawn) [Example 265, 1-(1-(2-Amino-4-pyrimidinyl)-2,3-dihydro-1H-indol-6-yl)-3-methyl-1-pentyn-3-ol], for which the Ki was below 1 µM.
Consider `CC(C)(C)C(C)(O)C#Cc1ccc2c(c1)N(c1ccnc(N)n1)CC2` (stereo not drawn) [Example 268, 1-(1-(2-Amino-4-pyrimidinyl)-2,3-dihydro-1H-indol-6-yl)-3,4,4-trimethyl-1-pentyn-3-ol], for which the inhibition constant (Ki) is 1 to 30 µM.
On to `CN1CCOC2(C1)CN(c1nc(N)ncc1Cl)c1cc(C#C[C@@](C)(O)c3nccs3)ccc12` (stereo partly drawn) [Example 36, (2R)-4-[1-(2-amino-5-chloropyrimidin-4-yl)-4′-methyl-1,2-dihydrospiro[indole-3,2′-[1,4]oxazinan]-6-yl]-2-(1,3-thiazol-2-yl)but-3-yn-2-ol], for which the Ki was below 1 µM.
Consider `CN1CC[C@@]2(C1)CN(c1nc(N)ncc1Cl)c1cc(C#C[C@@](C)(O)c3nccs3)ccc12` (relative stereo) [Example 195, (2R)-4-((3R*)-1-(2-Amino-5-chloro-4-pyrimidinyl)-1′-methyl-1,2-dihydrospiro[indole-3,3′-pyrrolidin]-6-yl)-2-(1,3-thiazol-2-yl)-3-butyn-2-ol], for which the Ki was below 1 µM.
On to `Cc1noc(C(C)(O)C#Cc2ccc3c(c2)N(c2nc(N)ncc2Cl)CC3)n1` (stereo not drawn) [Example 1, 4-(1-(2-amino-5-chloropyrimidin-4-yl)indolin-6-yl)-2-(3-methyl-1,2,4-oxadiazol-5-yl)but-3-yn-2-ol], for which the inhibition constant Ki is below 1 µM.
To `Cc1c[nH]c(C(C)(O)C#Cc2ccc3c(c2)N(c2nc(N)ncc2Cl)CC3(C)C)n1` (stereo not drawn) [Example 79, 4-(1-(2-Amino-5-chloro-4-pyrimidinyl)-3,3-dimethyl-2,3-dihydro-1H-indol-6-yl)-2-(4-methyl-1H-imidazol-2-yl)-3-butyn-2-ol] belongs below 1 µM; to `Cc1cc([C@@](C)(O)C#Cc2ccc(F)c(Nc3nc(N)ncc3Cl)c2)no1` [Example 177, (S)-4-(3-(2-amino-5-chloropyrimidin-4-ylamino)-4-fluorophenyl)-2-(5-methylisoxazol-3-yl)but-3-yn-2-ol], 1 to 30 µM; to `CC1(C)CN(c2nc(N)ncc2Cl)c2cc(C#C[C@@](C)(O)c3nccs3)ccc21` (single isomer, unassigned) [Example 40], below 1 µM.
Take `C[C@](O)(C#Cc1ccc2c(c1)N(c1nc(N)ncc1Cl)C[C@@]21CCOC1)c1nccs1` (stereo in doubt) [Example 199, (2S)-4-((3R*)-1′-(2-Amino-5-chloro-4-pyrimidinyl)-1′,2′,4,5-tetrahydrospiro[furan-3,3′-indol]-6′-yl)-2-(1,3-thiazol-2-yl)-3-butyn-2-ol]: the Ki was in the range of 1 to 30 µM.
The same measure for `Nc1ncc(Cl)c(-c2c[nH]c3ccc(C#CC4(O)CCCCC4)cc23)n1` [Example 109, 1-(2-(3-(2-amino-5-chloropyrimidin-4-yl)-1H-indol-5-yl)ethynyl)cyclohexanol]: below 1 µM; for `CC(O)(C#Cc1ccc(OC2CCOCC2)c(Nc2ncncc2Cl)c1)c1nccs1` (stereo not drawn) [Example 171, 4-(3-(5-Chloropyrimidin-4-ylamino)-4-(tetrahydro-2H-pyran-4-yloxy)phenyl)-2-(thiazol-2-yl)but-3-yn-2-ol]: below 1 µM; for `CC(O)(C#Cc1ccc2c(c1)N(c1ccnc(N)n1)CC2)c1sccc1Cl` (stereo not drawn) [Example 284, 4-(1-(2-Amino-4-pyrimidinyl)-2,3-dihydro-1H-indol-6-yl)-2-(3-chloro-2-thienyl)-3-butyn-2-ol]: below 1 µM.
The same measure for `Cc1nonc1C(C)(O)C#Cc1ccc2c(c1)N(c1nc(N)ncc1Cl)CC2` (stereo not drawn) [Example 6, 4-(1-(2-amino-5-chloropyrimidin-4-yl)indolin-6-yl)-2-(4-methyl-1,2,5-oxadiazol-3-yl)but-3-yn-2-ol]: 1 to 30 µM.
To `CC(O)(C#Cc1ccc2ccn(-c3ccncc3)c2c1)c1nccs1` (stereo not drawn) [Example 299, 4-(1-(4-Pyridinyl)-1H-indol-6-yl)-2-(1,3-thiazol-2-yl)-3-butyn-2-ol] belongs below 1 µM.

(Values after patent US20110086834A1, “ALKYNYL ALCOHOLS AS KINASE INHIBITORS” (AMGEN INC., priority 2008, published 2011).)
